# According to the supplement of paper PMC5303821, “Major sulfonate transporter Soa1 in Saccharomyces cerevisiae and considerable substrate diversity in its fungal family” (Nature Communications, 2017):
# Key:
# [1] = tested on: Ogataea parapolymorpha_XP_013935289; assay: lag phase before growth; higher = slower start of growth; conditions: S. cerevisiae S288C/BY sul1Δ sul2Δ soa1Δ with transporter ortholog inserted at SOA1 locus, sulfur-free B medium, 4% glucose, pH 6.5, sole sulfur source
# Description: (§1)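 S. cerevisiae sul1Δ sul2Δ soa1Δ strains expressing 20 fungal SOA1 orthologs (or no transporter, 'soa1 del') were grown in liquid sulfur-free B medium, 4% glucose, pH 6.5 (7 mM K2HPO4). The strains were sulfur-starved for 3 days beforehand. Each sulfur compound was the sole sulfur source at 200 µM (sulfate also at 40 mM). OD600 curves of duplicate cultures were averaged and fitted (logistic / Richards, GroFit) to give maximal growth rate, maximal density and lag phase; temperature not stated.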
# [2] = tested on: Saccharomyces cerevisiae_SOA1; assay: as above; conditions: sulfur source concentration 40000 µM; S. cerevisiae S288C/BY sul1Δ sul2Δ soa1Δ with transporter ortholog inserted at SOA1 locus; sulfur-free B medium, 4% glucose, pH 6.5, sole sulfur source
# Description: as §1
# [3] = tested on: Saccharomyces eubayanus_SOA1; assay: as above; conditions: sulfur source concentration 40000 µM; S. cerevisiae S288C/BY sul1Δ sul2Δ soa1Δ with transporter ortholog inserted at SOA1 locus; sulfur-free B medium, 4% glucose, pH 6.5, sole sulfur source
# Description: as §1
# [4] = tested on: Saccharomyces uvarum_SOA1; assay: as above; conditions: sulfur source concentration 40000 µM; S. cerevisiae S288C/BY sul1Δ sul2Δ soa1Δ with transporter ortholog inserted at SOA1 locus; sulfur-free B medium, 4% glucose, pH 6.5, sole sulfur source
# Description: as §1
# [5] = tested on: Aspergillus nidulans (IAM 2006)_astA; assay: maximal culture density with compound as sole sulfur source (OD600); higher = better growth; conditions: S. cerevisiae S288C/BY sul1Δ sul2Δ soa1Δ with transporter ortholog inserted at SOA1 locus, sulfur-free B medium, 4% glucose, pH 6.5, sole sulfur source
# Description: as §1
# [6] = tested on: Aspergillus nidulans_CBF74694; assay: as above; conditions: S. cerevisiae S288C/BY sul1Δ sul2Δ soa1Δ with transporter ortholog inserted at SOA1 locus, sulfur-free B medium, 4% glucose, pH 6.5, sole sulfur source
# Description: as §1
# [7] = tested on: Aspergillus nidulans_CBF80346; assay: as above; conditions: S. cerevisiae S288C/BY sul1Δ sul2Δ soa1Δ with transporter ortholog inserted at SOA1 locus, sulfur-free B medium, 4% glucose, pH 6.5, sole sulfur source
# Description: as §1
# [8] = tested on: Aspergillus nidulans_XP_660563; assay: as above; conditions: S. cerevisiae S288C/BY sul1Δ sul2Δ soa1Δ with transporter ortholog inserted at SOA1 locus, sulfur-free B medium, 4% glucose, pH 6.5, sole sulfur source
# Description: as §1
# [9] = tested on: Aspergillus nidulans_XP_660670; assay: as above; conditions: S. cerevisiae S288C/BY sul1Δ sul2Δ soa1Δ with transporter ortholog inserted at SOA1 locus, sulfur-free B medium, 4% glucose, pH 6.5, sole sulfur source
# Description: as §1
# [10] = tested on: Aspergillus nidulans_XP_661711; assay: as above; conditions: S. cerevisiae S288C/BY sul1Δ sul2Δ soa1Δ with transporter ortholog inserted at SOA1 locus, sulfur-free B medium, 4% glucose, pH 6.5, sole sulfur source
# Description: as §1
# [11] = tested on: Aspergillus nidulans_XP_661733; assay: as above; conditions: S. cerevisiae S288C/BY sul1Δ sul2Δ soa1Δ with transporter ortholog inserted at SOA1 locus, sulfur-free B medium, 4% glucose, pH 6.5, sole sulfur source
# Description: as §1
# [12] = tested on: Aspergillus nidulans_XP_681611; assay: as above; conditions: S. cerevisiae S288C/BY sul1Δ sul2Δ soa1Δ with transporter ortholog inserted at SOA1 locus, sulfur-free B medium, 4% glucose, pH 6.5, sole sulfur source
# Description: as §1
# [13] = tested on: Fusarium oxysporum_ENH65823; assay: as above; conditions: sulfur source concentration 200 µM; S. cerevisiae S288C/BY sul1Δ sul2Δ soa1Δ with transporter ortholog inserted at SOA1 locus; sulfur-free B medium, 4% glucose, pH 6.5, sole sulfur source
# Description: as §1
# [14] = tested on: Metarhizium robertsii_XP_007821441; assay: as above; conditions: S. cerevisiae S288C/BY sul1Δ sul2Δ soa1Δ with transporter ortholog inserted at SOA1 locus, sulfur-free B medium, 4% glucose, pH 6.5, sole sulfur source
# Description: as §1
# [15] = tested on: Metarhizium robertsii_XP_007822519; assay: as above; conditions: S. cerevisiae S288C/BY sul1Δ sul2Δ soa1Δ with transporter ortholog inserted at SOA1 locus, sulfur-free B medium, 4% glucose, pH 6.5, sole sulfur source
# Description: as §1
# [16] = tested on: Metarhizium robertsii_XP_007823832; assay: as above; conditions: S. cerevisiae S288C/BY sul1Δ sul2Δ soa1Δ with transporter ortholog inserted at SOA1 locus, sulfur-free B medium, 4% glucose, pH 6.5, sole sulfur source
# Description: as §1
# [17] = tested on: Ogataea parapolymorpha_XP_013932458; assay: as above; conditions: S. cerevisiae S288C/BY sul1Δ sul2Δ soa1Δ with transporter ortholog inserted at SOA1 locus, sulfur-free B medium, 4% glucose, pH 6.5, sole sulfur source
# Description: as §1
# [18] = tested on: Ogataea parapolymorpha_XP_013935289; assay: as above; conditions: S. cerevisiae S288C/BY sul1Δ sul2Δ soa1Δ with transporter ortholog inserted at SOA1 locus, sulfur-free B medium, 4% glucose, pH 6.5, sole sulfur source
# Description: as §1
# [19] = tested on: Ogataea parapolymorpha_XP_013936897; assay: as above; conditions: S. cerevisiae S288C/BY sul1Δ sul2Δ soa1Δ with transporter ortholog inserted at SOA1 locus, sulfur-free B medium, 4% glucose, pH 6.5, sole sulfur source
# Description: as §1
# [20] = tested on: Saccharomyces cerevisiae_SOA1; assay: as above; conditions: S. cerevisiae S288C/BY sul1Δ sul2Δ soa1Δ with transporter ortholog inserted at SOA1 locus, sulfur-free B medium, 4% glucose, pH 6.5, sole sulfur source
# Description: as §1
# [21] = tested on: Saccharomyces eubayanus_SOA1; assay: as above; conditions: S. cerevisiae S288C/BY sul1Δ sul2Δ soa1Δ with transporter ortholog inserted at SOA1 locus, sulfur-free B medium, 4% glucose, pH 6.5, sole sulfur source
# Description: as §1
# [22] = tested on: Saccharomyces eubayanus_SOA2; assay: as above; conditions: S. cerevisiae S288C/BY sul1Δ sul2Δ soa1Δ with transporter ortholog inserted at SOA1 locus, sulfur-free B medium, 4% glucose, pH 6.5, sole sulfur source
# Description: as §1
# [23] = tested on: Saccharomyces uvarum_SOA1; assay: as above; conditions: S. cerevisiae S288C/BY sul1Δ sul2Δ soa1Δ with transporter ortholog inserted at SOA1 locus, sulfur-free B medium, 4% glucose, pH 6.5, sole sulfur source
# Description: as §1
# [24] = tested on: Saccharomyces uvarum_SOA2; assay: as above; conditions: S. cerevisiae S288C/BY sul1Δ sul2Δ soa1Δ with transporter ortholog inserted at SOA1 locus, sulfur-free B medium, 4% glucose, pH 6.5, sole sulfur source
# Description: as §1
# soa1 del = assay: as above; conditions: S. cerevisiae S288C/BY sul1Δ sul2Δ soa1Δ with transporter ortholog inserted at SOA1 locus, sulfur-free B medium, 4% glucose, pH 6.5, sole sulfur source
# Description: as §1
# [25] = tested on: Aspergillus nidulans (IAM 2006)_astA; assay: maximal growth rate with compound as sole sulfur source (OD600 per h); higher = better growth / uptake of the sulfur source; conditions: S. cerevisiae S288C/BY sul1Δ sul2Δ soa1Δ with transporter ortholog inserted at SOA1 locus, sulfur-free B medium, 4% glucose, pH 6.5, sole sulfur source
# Description: as §1
# [26] = tested on: Aspergillus nidulans_CBF80346; assay: as above; conditions: S. cerevisiae S288C/BY sul1Δ sul2Δ soa1Δ with transporter ortholog inserted at SOA1 locus, sulfur-free B medium, 4% glucose, pH 6.5, sole sulfur source
# Description: as §1
# [27] = tested on: Metarhizium robertsii_XP_007821441; assay: as above; conditions: S. cerevisiae S288C/BY sul1Δ sul2Δ soa1Δ with transporter ortholog inserted at SOA1 locus, sulfur-free B medium, 4% glucose, pH 6.5, sole sulfur source
# Description: as §1
# [28] = tested on: Metarhizium robertsii_XP_007822519; assay: as above; conditions: S. cerevisiae S288C/BY sul1Δ sul2Δ soa1Δ with transporter ortholog inserted at SOA1 locus, sulfur-free B medium, 4% glucose, pH 6.5, sole sulfur source
# Description: as §1
# [29] = tested on: Metarhizium robertsii_XP_007823832; assay: as above; conditions: S. cerevisiae S288C/BY sul1Δ sul2Δ soa1Δ with transporter ortholog inserted at SOA1 locus, sulfur-free B medium, 4% glucose, pH 6.5, sole sulfur source
# Description: as §1
# [30] = tested on: Ogataea parapolymorpha_XP_013935289; assay: as above; conditions: S. cerevisiae S288C/BY sul1Δ sul2Δ soa1Δ with transporter ortholog inserted at SOA1 locus, sulfur-free B medium, 4% glucose, pH 6.5, sole sulfur source
# Description: as §1
# [31] = tested on: Ogataea parapolymorpha_XP_013936897; assay: as above; conditions: S. cerevisiae S288C/BY sul1Δ sul2Δ soa1Δ with transporter ortholog inserted at SOA1 locus, sulfur-free B medium, 4% glucose, pH 6.5, sole sulfur source
# Description: as §1
# [32] = tested on: Saccharomyces eubayanus_SOA1; assay: as above; conditions: S. cerevisiae S288C/BY sul1Δ sul2Δ soa1Δ with transporter ortholog inserted at SOA1 locus, sulfur-free B medium, 4% glucose, pH 6.5, sole sulfur source
# Description: as §1
# [33] = tested on: Saccharomyces uvarum_SOA1; assay: as above; conditions: S. cerevisiae S288C/BY sul1Δ sul2Δ soa1Δ with transporter ortholog inserted at SOA1 locus, sulfur-free B medium, 4% glucose, pH 6.5, sole sulfur source
# Description: as §1
# [34] = sulfur source concentration 200 µM
# [35] = sulfur source concentration 40000 µM
smiles,measurement,setting,value
O=S(=O)(O)O [sulfate],lag phase before growth,[1]; [34],25.8 h
same,lag phase before growth,[1]; [35],7.95 h
same,lag phase before growth,[2],13.8 h
same,lag phase before growth,[3],16.8 h
same,lag phase before growth,[4],10.7 h
same,maximal culture density,[5]; [34],1.6
same,maximal culture density,[5]; [35],1.68
same,maximal culture density,[6]; [34],0.184
same,maximal culture density,[6]; [35],0.208
same,maximal culture density,[7]; [34],0.243
same,maximal culture density,[7]; [35],0.216
same,maximal culture density,[8]; [34],0.31
same,maximal culture density,[8]; [35],0.315
same,maximal culture density,[9]; [34],0.223
same,maximal culture density,[9]; [35],0.277
same,maximal culture density,[10]; [34],0.224
same,maximal culture density,[10]; [35],0.382
same,maximal culture density,[11]; [34],0.264
same,maximal culture density,[11]; [35],1.57
same,maximal culture density,[12]; [34],0.294
same,maximal culture density,[12]; [35],0.301
same,maximal culture density,[13],0.233
same,maximal culture density,[14]; [34],0.215
same,maximal culture density,[14]; [35],0.225
same,maximal culture density,[15]; [34],0.186
same,maximal culture density,[15]; [35],0.213
same,maximal culture density,[16]; [34],1.57
same,maximal culture density,[16]; [35],1.63
same,maximal culture density,[17]; [34],0.281
same,maximal culture density,[17]; [35],0.343
same,maximal culture density,[18]; [34],1.58
same,maximal culture density,[18]; [35],1.65
same,maximal culture density,[19]; [34],0.294
same,maximal culture density,[19]; [35],0.301
same,maximal culture density,[20]; [34],0.274
same,maximal culture density,[20]; [35],1.71
same,maximal culture density,[21]; [34],0.251
same,maximal culture density,[21]; [35],1.62
same,maximal culture density,[22]; [34],0.201
same,maximal culture density,[22]; [35],0.21
same,maximal culture density,[23]; [34],0.265
same,maximal culture density,[23]; [35],1.65
same,maximal culture density,[24]; [34],0.199
same,maximal culture density,[24]; [35],0.212
same,maximal culture density,soa1 del; [34],0.212
same,maximal culture density,soa1 del; [35],0.222
same,maximal growth rate,[25]; [34],0.0953
same,maximal growth rate,[25]; [35],0.102
same,maximal growth rate,[26]; [34],0.00472
same,maximal growth rate,[26]; [35],0.00348
same,maximal growth rate,[27]; [34],0.00309
same,maximal growth rate,[27]; [35],0.00378
same,maximal growth rate,[28]; [34],0.00347
same,maximal growth rate,[28]; [35],0.00386
same,maximal growth rate,[29]; [34],0.0813
same,maximal growth rate,[29]; [35],0.088
same,maximal growth rate,[30]; [34],0.0777
same,maximal growth rate,[30]; [35],0.124
same,maximal growth rate,[31]; [34],0.00477
same,maximal growth rate,[31]; [35],0.00462
same,maximal growth rate,[32]; [34],0.00395
same,maximal growth rate,[32]; [35],0.0997
same,maximal growth rate,[33]; [34],0.0032
same,maximal growth rate,[33]; [35],0.0989
